Measured values: publication PMC5969508, “Stapled peptides as a new technology to investigate protein–protein interactions in human platelets” (Chemical Science, 2018)
Entries after “also recorded” stand apart in the source; their conditions may differ.

How the values were obtained:
human platelets [1] = experiment: Confocal microscopy of platelets incubated with fluorescently labelled peptides; format: cell-based; details: live washed platelets, 10 µM FITC-labelled peptide, 15 minutes incubation, confocal imaging (Fig. SI_5)
Procedure: Fig. 3 A functionalised staple is required to induce peptide uptake into platelets. (A) Platelets were incubated with TAMRA labelled model peptides (10 μM final concentration) for 1 h (white), 2 h (grey) and 3 h incubation (black) and the percentage positive for TAMRA fluorescence was quantified using flow cytometry. (B) Peptides showing high uptake within the first hour were analysed during first 5 min following treatment. Changes in platelet-associated fluorescence were recorded in real time using flow cytometry. Unlabelled platelets were recorded for 30 s prior to addition of the given peptide. (C) Platelets were incubated with 10 μM of TAMRA-model peptides for 1 h prior to imaging by confocal microscopy. ^‡ […]
Peptide uptake experiments of the most permeable model peptides 5, 13–16 were repeated in the presence of platelet-rich plasma (PRP) to ensure realistic conditions (ESI, Fig. SI_2a ^†).
Figure SI_3. […]
Peptides were used to a final concentration of 10 µM. […] Images of TAMRA-labelled model peptide stained platelets were acquired after 1 h incubation1 using with excitation at 565 nm and emission was detected with a 560 -615 nm BP filter. […]
were acquired after 15 minutes incubation1 using excitation at 488 nm and emission was detected with […]

human platelets [2] = details: PRP, 10 μM FITC-labelled peptide, 15, 30, 60 minutes, flow cytometry, average of two independent repeats (Fig. SI_2b)
Text: (1 picture or pasted object on this page, not shown here)

human platelets [3] = experiment: PS exposure (annexin-V binding) by flow cytometry; format: cell-based; details: washed human platelets, 10 μM, 37 °C, time course up to 3 h, flow cytometry (Fig. 5A)
Procedure: Platelet activation markers (% positive platelets) were investigated following 1 h of peptide treatment. […] CD63 binding.
1.1 Preparation of washed platelet suspension
Human blood was collected from healthy volunteers, who had not taken medication for two weeks,
following informed consent in accordance with the Declaration of Helsinki. Blood was collected into 11 mM sodium citrate and washed platelets were prepared as follows: Platelet-rich plasma (PRP) was obtained by centrifugation (240 g, 15 min). Prostaglandin E1 (PGE1, 2 µM) was added to prevent premature platelet activation, and the plasma was centrifuged at 640 g for 15 min. […]
Treated washed platelet suspensions (1x10^7/mL) were analysed by flow cytometry using a C6 Accuri Flow Cytometer (Beckton Dickinson, UK), in the presence or absence of Annexin-V-PE (BD Biosciences, UK), anti-PAC-1 (BD Biosciences), anti-CD62 (BD Pharmingen, UK), or anti-CD-63P (BD Pharmingen). […]
PS exposure was assessed after incubation of 50 µL of washed platelet suspensions at 37 °C in 445 µL of […]
under the protection from direct light and analysed by flow cytometry.
Platelet activation markers (PAC -1, CD62P and CD63 binding) were assessed after incubation of 3 µL of […]
antibody and the peptide (1.1 μL of 1 mM stock solution in DMSO) . The suspensions were analysed by […]

## CC[C@H](C)[C@H](NC(C)=O)C(=O)N[C@@H](Cc1c[nH]c2ccccc12)C(=O)N[C@H](C(=O)N[C@@H](C)C(=O)N[C@@H](CCC(N)=O)C(=O)N[C@@H](CCC(=O)O)C(=O)N[C@@H](CC(C)C)C(=O)N[C@@H](CCCNC(=N)N)C(=O)N[C@H]1CCCn2cc(nn2)CCCc2cn(nn2)CCC[C@@H](C(=O)N[C@@H](Cc2ccccc2)C(=O)N[C@@H](CC(N)=O)C(=O)N[C@@H](C)C(=O)N[C@@H](Cc2ccc(O)cc2)C(=O)N[C@@H](Cc2ccc(O)cc2)C(=O)N[C@@H](C)C(=O)N[C@@H](CCCNC(=N)N)C(=O)N[C@@H](CCCNC(=N)N)C(N)=O)NC(=O)[C@H](CC(=O)O)NC(=O)CNC(=O)[C@H]([C@@H](C)CC)NC1=O)[C@@H](C)CC [peptide 18]
Human platelets [1]
  localisation / platelet permeability of FITC-labelled Bim BH3 peptide: poor membrane permeability; also recorded: forming aggregates outside the platelet cytosol; also recorded: form fluorescent aggregates outside the platelets
Human platelets [2]
  platelet fluorescence of FITC-labelled Bim BH3 peptide in plasma: high platelet fluorescence in plasma
Human platelets [3]
  PS exposure / annexin-V binding (in words): No annexin-V binding was observed
